{
  "source": "PubChem BioAssay AID248",
  "about": "(DTP/NCI, 2004)",
  "system": "L1210 leukemia ip in BDF1 mice, survival T/C",
  "assay": "NCI In Vivo Anticancer Drug Screen. Data for tumor model L1210 Leukemia (intraperitoneal) in B6D2F1 (BDF1) mice",
  "details": "endpoint: mean survival time, higher = longer survival",
  "procedure,_shortened": "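Survival endpoint. Drug-treated group vs vehicle group, expressed as T divided by C. Tumor passaged by transplantation.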",
  "key": {"[1]": {"details": "dose: 100.0 mg/kg/injection, schedule: Q01DX001 (ip), vehicle: saline"}, "[2]": {"details": "dose: 200.0 mg/kg/injection, schedule: Q01DX001 (ip), vehicle: saline"}, "[3]": {"details": "dose: 400.0 mg/kg/injection, schedule: Q01DX001 (ip), vehicle: saline"}, "[4]": {"details": "dose: 100.0 mg/kg/injection, schedule: Q01DX001 (ip), vehicle: carboxymethylcellulose (CMC)"}, "[5]": {"details": "dose: 200.0 mg/kg/injection, schedule: Q01DX001 (ip), vehicle: carboxymethylcellulose (CMC)"}, "[6]": {"details": "dose: 100.0 mg/kg/injection, schedule: Q01DX001 (ip), vehicle: other"}, "[7]": {"details": "dose: 200.0 mg/kg/injection, schedule: Q01DX001 (ip), vehicle: other"}, "[8]": {"details": "dose: 400.0 mg/kg/injection, schedule: Q01DX001 (ip), vehicle: other"}},
  "note": "Toxic doses and inconclusive results are not listed.",
  "data": [
    {"smiles": "COc1cc2c(cc1OC)C(Cc1cc3c(cc1[N+](=O)[O-])OCO3)=NCC2", "values": [
      {"measurement": "T/C", "setting": "[1]", "result": "96 % of control"},
      {"measurement": "T/C", "setting": "[2]", "result": "96 % of control"},
      {"measurement": "T/C", "setting": "[3]", "result": "93 % of control"}
    ]},
    {"smiles": "CCCCCCC[CH2][Sn]([CH2]CCCCCCC)([NH]S(=O)(=O)c1ccc(C)cc1)[NH]S(=O)(=O)c1ccc(C)cc1", "values": [
      {"measurement": "T/C", "setting": "dose: 18.75 mg/kg/injection, schedule: Q01DX009 (ip), vehicle: saline sonified", "result": "102 % of control"},
      {"measurement": "T/C", "setting": "dose: 37.5 mg/kg/injection, schedule: Q01DX009 (ip), vehicle: saline sonified", "result": "86 % of control"},
      {"measurement": "T/C", "setting": "dose: 75.0 mg/kg/injection, schedule: Q04DX003 (ip), vehicle: Klucel (hydroxypropylcellulose) (HPC)", "result": "107 % of control"}
    ]},
    {"smiles": "S=C(N/N=C\\c1ccc2c(c1)OCO2)Nc1ccc2cn[nH]c2c1", "values": [
      {"measurement": "T/C", "setting": "dose: 50.0 mg/kg/injection, schedule: Q01DX001 (ip), vehicle: carboxymethylcellulose (CMC)", "result": "97 % of control"},
      {"measurement": "T/C", "setting": "[4]", "result": "100 % of control"},
      {"measurement": "T/C", "setting": "[5]", "result": "91 % of control"}
    ]},
    {"smiles": "CCOC(=O)C(C)(C)CN(CC(C)(C)C(=O)OCC)C(C)(C)CO", "values": [
      {"measurement": "T/C", "setting": "[6]", "result": "95 % of control"},
      {"measurement": "T/C", "setting": "[7]", "result": "98 % of control"},
      {"measurement": "T/C", "setting": "[8]", "result": "87 % of control"}
    ]},
    {"smiles": "O=C1c2ccccc2-c2cc(S)ccc21", "values": [
      {"measurement": "T/C", "setting": "[4]", "result": "109 % of control"},
      {"measurement": "T/C", "setting": "[5]", "result": "104 % of control"},
      {"measurement": "T/C", "setting": "dose: 400.0 mg/kg/injection, schedule: Q01DX001 (ip), vehicle: carboxymethylcellulose (CMC)", "result": "101 % of control"}
    ]},
    {"smiles": "O=[N+]([O-])c1ccc(CS(=O)Cc2ccccc2)cc1", "note": "(configuration not stated)", "values": [
      {"measurement": "T/C", "setting": "dose: 75.0 mg/kg/injection, schedule: Q01DX001 (ip), vehicle: carboxymethylcellulose (CMC)", "result": "91 % of control"},
      {"measurement": "T/C", "setting": "dose: 150.0 mg/kg/injection, schedule: Q01DX001 (ip), vehicle: carboxymethylcellulose (CMC)", "result": "100 % of control"},
      {"measurement": "T/C", "setting": "dose: 300.0 mg/kg/injection, schedule: Q01DX001 (ip), vehicle: carboxymethylcellulose (CMC)", "result": "100 % of control"}
    ]},
    {"smiles": "CNC(=N)c1ccc(NC(=N)c2ccc(NC(=N)c3ccc(NC(=O)Nc4ccc(C(=N)Nc5ccc(C(=N)Nc6ccc(C(=N)NC)cc6)cc5)cc4)cc3)cc2)cc1", "values": [
      {"measurement": "T/C", "setting": "dose: 6.25 mg/kg/injection, schedule: Q01DX001 (ip), vehicle: water", "result": "112 % of control"},
      {"measurement": "T/C", "setting": "dose: 12.5 mg/kg/injection, schedule: Q01DX001 (ip), vehicle: water", "result": "108 % of control"},
      {"measurement": "T/C", "setting": "dose: 16.0 mg/kg/injection, schedule: Q01DX015 (ip), vehicle: water", "result": "157 % of control"},
      {"measurement": "T/C", "setting": "dose: 25.0 mg/kg/injection, schedule: Q01DX001 (ip), vehicle: water", "result": "112 % of control"},
      {"measurement": "T/C", "setting": "dose: 31.0 mg/kg/injection, schedule: Q01DX015 (ip), vehicle: water", "result": "214 % of control"}
    ]},
    {"smiles": "COc1ccc(-n2cnnn2)cc1", "values": [
      {"measurement": "T/C", "setting": "[1]", "result": "103 % of control"},
      {"measurement": "T/C", "setting": "[2]", "result": "103 % of control"},
      {"measurement": "T/C", "setting": "[3]", "result": "103 % of control"}
    ]},
    {"smiles": "CCCN(CCC)C[Si](C)(C)C", "values": [
      {"measurement": "T/C", "setting": "dose: 12.5 mg/kg/injection, schedule: Q01DX001 (ip), vehicle: saline", "result": "121 % of control"},
      {"measurement": "T/C", "setting": "dose: 25.0 mg/kg/injection, schedule: Q01DX001 (ip), vehicle: saline", "result": "105 % of control"},
      {"measurement": "T/C", "setting": "dose: 50.0 mg/kg/injection, schedule: Q01DX001 (ip), vehicle: saline", "result": "111 % of control"}
    ]},
    {"smiles": "O=C1NC(=S)SC1N=Nc1ccc(S(=O)(=O)Nc2ncccn2)cc1", "note": "(configuration not stated)", "values": [
      {"measurement": "T/C", "setting": "dose: 75.0 mg/kg/injection, schedule: Q01DX001 (ip), vehicle: saline", "result": "104 % of control"},
      {"measurement": "T/C", "setting": "dose: 150.0 mg/kg/injection, schedule: Q01DX001 (ip), vehicle: saline", "result": "102 % of control"},
      {"measurement": "T/C", "setting": "dose: 300.0 mg/kg/injection, schedule: Q01DX001 (ip), vehicle: saline", "result": "100 % of control"}
    ]},
    {"smiles": "Cc1ccc(S(=O)(=O)N(CCCBr)c2ccc(C3(CCl)OCCO3)cc2)cc1", "values": [
      {"measurement": "T/C", "setting": "dose: 100.0 mg/kg/injection, schedule: Q01DX001 (ip), vehicle: Klucel (hydroxypropylcellulose) (HPC)", "result": "91 % of control"},
      {"measurement": "T/C", "setting": "dose: 200.0 mg/kg/injection, schedule: Q01DX001 (ip), vehicle: Klucel (hydroxypropylcellulose) (HPC)", "result": "91 % of control"},
      {"measurement": "T/C", "setting": "dose: 400.0 mg/kg/injection, schedule: Q01DX001 (ip), vehicle: Klucel (hydroxypropylcellulose) (HPC)", "result": "91 % of control"}
    ]},
    {"smiles": "Cc1cc(N(C)C)nc(N(C)C)n1", "values": [
      {"measurement": "T/C", "setting": "[6]", "result": "93 % of control"},
      {"measurement": "T/C", "setting": "dose: 100.0 mg/kg/injection, schedule: Q04DX003 (ip), vehicle: other", "result": "103 % of control"},
      {"measurement": "T/C", "setting": "[7]", "result": "101 % of control"},
      {"measurement": "T/C", "setting": "dose: 200.0 mg/kg/injection, schedule: Q04DX003 (ip), vehicle: other", "result": "97 % of control"},
      {"measurement": "T/C", "setting": "dose: 250.0 mg/kg/injection, schedule: Q01DX Z (ip), vehicle: methylcellulose (MC)", "result": "100 % of control"},
      {"measurement": "T/C", "setting": "dose: 375.0 mg/kg/injection, schedule: Q01DX Z (ip), vehicle: methylcellulose (MC)", "result": "94 % of control"},
      {"measurement": "T/C", "setting": "[8]", "result": "91 % of control"},
      {"measurement": "T/C", "setting": "dose: 400.0 mg/kg/injection, schedule: Q04DX003 (ip), vehicle: other", "result": "102 % of control"},
      {"measurement": "T/C", "setting": "dose: 500.0 mg/kg/injection, schedule: Q01DX Z (ip), vehicle: methylcellulose (MC)", "result": "96 % of control"}
    ]},
    {"smiles": "CC(C)=CCC1=C(O)C(C)=CC(=O)C1=O", "values": [
      {"measurement": "T/C", "setting": "dose: 100.0 mg/kg/injection, schedule: Q01DX001 (ip), vehicle: water", "result": "97 % of control"},
      {"measurement": "T/C", "setting": "dose: 200.0 mg/kg/injection, schedule: Q01DX001 (ip), vehicle: water", "result": "94 % of control"},
      {"measurement": "T/C", "setting": "dose: 400.0 mg/kg/injection, schedule: Q01DX001 (ip), vehicle: water", "result": "97 % of control"}
    ]}
  ]
}
